Here are results for two compounds from PMC12406203 (Journal of Medicinal Chemistry, 2025).

Common to all, as to test: KINOMEscan
Type in all cases: binding

One assay concerns the target T1, p38γ (Homo sapiens, UniProt P53778).
T1 construct: purchased Eurofins DiscoverX, LLC; host or cells: E. coli (BL21-derived, T7 phage) or HEK-293
T1 sequence (P53778 1-367): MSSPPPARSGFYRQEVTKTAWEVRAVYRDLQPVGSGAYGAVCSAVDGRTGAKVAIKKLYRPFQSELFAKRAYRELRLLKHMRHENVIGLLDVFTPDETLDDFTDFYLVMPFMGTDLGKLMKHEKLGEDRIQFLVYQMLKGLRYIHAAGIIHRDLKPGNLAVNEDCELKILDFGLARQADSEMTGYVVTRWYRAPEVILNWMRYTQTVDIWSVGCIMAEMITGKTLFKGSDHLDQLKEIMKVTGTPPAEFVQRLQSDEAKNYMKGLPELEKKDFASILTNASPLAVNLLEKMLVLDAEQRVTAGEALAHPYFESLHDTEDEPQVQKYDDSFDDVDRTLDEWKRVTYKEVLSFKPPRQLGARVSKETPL

The next assay has as its target T2, AURKB (Homo sapiens, UniProt Q96GD4).
T2 construct: purchased Eurofins DiscoverX, LLC; host or cells: E. coli BL21-derived (T7 phage) or HEK-293

For a further assay, the target named is T3, PLK1 (Homo sapiens, UniProt P53350).
T3 construct: purchased Eurofins DiscoverX, LLC; host or cells: E. coli BL21-derived host (T7 phage) or HEK-293
T3 sequence (P53350 whole entry): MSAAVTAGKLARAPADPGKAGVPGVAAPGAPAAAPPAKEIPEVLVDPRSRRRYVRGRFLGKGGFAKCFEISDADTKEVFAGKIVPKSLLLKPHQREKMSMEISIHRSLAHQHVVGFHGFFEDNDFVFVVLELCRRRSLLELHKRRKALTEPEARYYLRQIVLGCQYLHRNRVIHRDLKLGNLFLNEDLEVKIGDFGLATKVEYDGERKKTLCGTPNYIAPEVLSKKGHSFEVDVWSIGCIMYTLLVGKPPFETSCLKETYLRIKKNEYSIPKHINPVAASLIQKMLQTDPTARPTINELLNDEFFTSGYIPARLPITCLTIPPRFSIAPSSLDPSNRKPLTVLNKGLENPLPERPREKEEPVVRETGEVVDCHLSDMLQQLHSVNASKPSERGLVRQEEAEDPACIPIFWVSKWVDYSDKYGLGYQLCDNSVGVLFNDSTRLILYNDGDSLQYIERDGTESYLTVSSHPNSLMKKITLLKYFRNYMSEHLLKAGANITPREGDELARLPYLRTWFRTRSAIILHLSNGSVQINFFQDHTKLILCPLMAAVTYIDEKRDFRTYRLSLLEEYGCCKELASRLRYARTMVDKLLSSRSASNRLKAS

The next assay has as its target T4, PIM1 (Homo sapiens, UniProt P11309).
T4 construct: purchased Eurofins DiscoverX, LLC; host or cells: E. coli BL21-derived host (T7 phage) or HEK-293

In the next assay the target is T5, CHEK1 (Homo sapiens, UniProt O14757).
T5 construct: purchased Eurofins DiscoverX, LLC; host or cells: E. coli (T7 phage) or HEK-293
T5 sequence (O14757 1-476): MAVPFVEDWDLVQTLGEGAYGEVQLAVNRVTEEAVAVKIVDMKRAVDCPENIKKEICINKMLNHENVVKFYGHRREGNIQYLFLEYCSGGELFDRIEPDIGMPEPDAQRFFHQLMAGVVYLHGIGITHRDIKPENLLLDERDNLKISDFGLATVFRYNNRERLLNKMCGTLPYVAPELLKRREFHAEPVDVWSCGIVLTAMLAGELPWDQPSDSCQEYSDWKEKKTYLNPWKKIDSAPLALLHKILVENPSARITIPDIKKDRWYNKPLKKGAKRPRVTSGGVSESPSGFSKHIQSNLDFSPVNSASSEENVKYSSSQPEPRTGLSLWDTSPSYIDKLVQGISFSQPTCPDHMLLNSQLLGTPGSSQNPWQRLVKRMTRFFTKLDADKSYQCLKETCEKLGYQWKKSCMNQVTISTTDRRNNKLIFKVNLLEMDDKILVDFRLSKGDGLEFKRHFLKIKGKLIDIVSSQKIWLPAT

For assay [1], the target named is T6, TYK2(JH1domain-catalytic) (Homo sapiens, UniProt P29597).
T6 construct: TYK2(JH1domain-; purchased Eurofins DiscoverX, LLC; host or cells: E. coli BL21-derived host (T7 phage) or HEK-293
T6 sequence (P29597 897-1176 limits assumed): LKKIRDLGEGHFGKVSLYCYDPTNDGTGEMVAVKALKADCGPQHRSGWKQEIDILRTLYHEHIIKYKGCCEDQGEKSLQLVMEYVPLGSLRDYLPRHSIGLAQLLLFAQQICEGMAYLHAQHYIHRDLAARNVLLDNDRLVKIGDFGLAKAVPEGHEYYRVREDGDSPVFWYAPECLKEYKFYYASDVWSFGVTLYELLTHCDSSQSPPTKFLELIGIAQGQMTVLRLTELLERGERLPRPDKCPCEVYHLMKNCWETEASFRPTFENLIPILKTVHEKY

Another assay addresses T7, BTK (Homo sapiens, UniProt Q06187).
T7 construct: purchased Eurofins DiscoverX, LLC; host or cells: E. coli BL21-derived (T7 phage) or HEK-293

A further assay concerns the target T8, FGFR2 (Homo sapiens, UniProt P21802).
T8 construct: purchased Eurofins DiscoverX, LLC; host or cells: E. coli (T7 phage) or HEK-293

The next assay concerns the target T9, CSF1R (Homo sapiens, UniProt P07333).
T9 construct: purchased Eurofins DiscoverX, LLC; host or cells: E. coli (T7 phage) or HEK-293

The target in another assay is T10, CDK3 (Homo sapiens, UniProt Q00526).
T10 construct: purchased Eurofins DiscoverX, LLC; host or cells: E. coli BL21-derived (T7 phage) or HEK-293
T10 sequence (Q00526 whole entry): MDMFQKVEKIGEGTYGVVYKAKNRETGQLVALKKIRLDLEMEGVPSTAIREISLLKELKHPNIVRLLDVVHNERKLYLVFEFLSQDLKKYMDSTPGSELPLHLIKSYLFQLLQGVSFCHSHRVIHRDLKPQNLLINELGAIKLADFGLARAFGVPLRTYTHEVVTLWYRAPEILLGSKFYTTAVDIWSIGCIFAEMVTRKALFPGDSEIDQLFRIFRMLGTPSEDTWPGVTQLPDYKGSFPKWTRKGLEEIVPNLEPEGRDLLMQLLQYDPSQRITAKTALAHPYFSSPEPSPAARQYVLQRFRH

A further assay concerns the target T11, BRAF(V600E) (Homo sapiens, UniProt P15056, V600E).
T11 construct: purchased Eurofins DiscoverX, LLC; host or cells: E. coli BL21-derived (T7 phage) or HEK-293

The next assay concerns the target T12, PDGFRA (Homo sapiens, UniProt P16234).
T12 construct: purchased Eurofins DiscoverX, LLC; host or cells: E. coli BL21-derived host (T7 phage) or HEK-293

T2 sequence (Q96GD4 whole entry): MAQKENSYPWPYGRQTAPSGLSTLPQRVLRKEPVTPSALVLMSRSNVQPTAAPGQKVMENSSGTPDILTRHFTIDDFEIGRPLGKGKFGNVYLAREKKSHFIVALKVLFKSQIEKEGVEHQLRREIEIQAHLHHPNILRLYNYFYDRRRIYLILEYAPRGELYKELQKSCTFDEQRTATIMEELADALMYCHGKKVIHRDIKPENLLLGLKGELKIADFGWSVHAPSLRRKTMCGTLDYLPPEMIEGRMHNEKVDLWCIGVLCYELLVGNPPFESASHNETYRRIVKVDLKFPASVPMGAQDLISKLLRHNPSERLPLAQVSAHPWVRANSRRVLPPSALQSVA
T4 sequence (P11309 whole entry): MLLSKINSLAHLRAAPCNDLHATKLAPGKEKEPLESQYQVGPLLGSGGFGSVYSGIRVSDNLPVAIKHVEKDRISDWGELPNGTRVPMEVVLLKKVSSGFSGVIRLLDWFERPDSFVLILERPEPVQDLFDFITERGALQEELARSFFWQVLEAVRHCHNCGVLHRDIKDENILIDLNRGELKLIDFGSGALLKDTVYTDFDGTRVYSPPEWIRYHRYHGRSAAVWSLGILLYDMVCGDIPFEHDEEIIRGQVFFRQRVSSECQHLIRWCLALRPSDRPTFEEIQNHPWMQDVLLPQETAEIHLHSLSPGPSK
T12 sequence (P16234 24-1089): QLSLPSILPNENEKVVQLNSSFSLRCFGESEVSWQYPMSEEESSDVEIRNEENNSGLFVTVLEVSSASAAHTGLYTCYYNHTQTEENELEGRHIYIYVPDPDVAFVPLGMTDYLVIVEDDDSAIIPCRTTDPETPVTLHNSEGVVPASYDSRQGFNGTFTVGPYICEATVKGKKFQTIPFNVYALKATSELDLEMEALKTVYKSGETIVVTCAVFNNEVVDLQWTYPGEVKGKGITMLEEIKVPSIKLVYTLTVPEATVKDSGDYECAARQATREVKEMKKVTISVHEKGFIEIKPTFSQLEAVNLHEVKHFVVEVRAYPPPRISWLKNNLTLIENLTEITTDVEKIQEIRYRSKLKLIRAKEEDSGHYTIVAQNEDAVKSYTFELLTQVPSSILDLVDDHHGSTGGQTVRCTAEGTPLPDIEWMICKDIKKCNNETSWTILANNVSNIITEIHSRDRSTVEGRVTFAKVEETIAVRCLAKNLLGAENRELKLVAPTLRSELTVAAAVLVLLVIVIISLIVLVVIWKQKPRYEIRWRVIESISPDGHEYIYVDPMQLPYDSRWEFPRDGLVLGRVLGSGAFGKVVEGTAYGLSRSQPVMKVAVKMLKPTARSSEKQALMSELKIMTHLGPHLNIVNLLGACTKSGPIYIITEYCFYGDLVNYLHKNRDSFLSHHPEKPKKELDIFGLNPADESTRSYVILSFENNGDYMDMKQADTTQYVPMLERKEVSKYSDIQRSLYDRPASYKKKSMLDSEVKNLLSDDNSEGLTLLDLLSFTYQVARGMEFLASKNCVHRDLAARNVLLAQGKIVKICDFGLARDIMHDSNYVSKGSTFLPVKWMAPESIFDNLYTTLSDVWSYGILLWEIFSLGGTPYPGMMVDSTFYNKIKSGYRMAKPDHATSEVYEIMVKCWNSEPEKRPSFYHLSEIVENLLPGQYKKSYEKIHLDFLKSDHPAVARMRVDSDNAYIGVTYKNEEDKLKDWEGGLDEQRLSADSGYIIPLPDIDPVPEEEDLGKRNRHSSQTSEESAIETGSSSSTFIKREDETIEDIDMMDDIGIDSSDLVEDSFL
T11 sequence (P15056 whole entry V600E): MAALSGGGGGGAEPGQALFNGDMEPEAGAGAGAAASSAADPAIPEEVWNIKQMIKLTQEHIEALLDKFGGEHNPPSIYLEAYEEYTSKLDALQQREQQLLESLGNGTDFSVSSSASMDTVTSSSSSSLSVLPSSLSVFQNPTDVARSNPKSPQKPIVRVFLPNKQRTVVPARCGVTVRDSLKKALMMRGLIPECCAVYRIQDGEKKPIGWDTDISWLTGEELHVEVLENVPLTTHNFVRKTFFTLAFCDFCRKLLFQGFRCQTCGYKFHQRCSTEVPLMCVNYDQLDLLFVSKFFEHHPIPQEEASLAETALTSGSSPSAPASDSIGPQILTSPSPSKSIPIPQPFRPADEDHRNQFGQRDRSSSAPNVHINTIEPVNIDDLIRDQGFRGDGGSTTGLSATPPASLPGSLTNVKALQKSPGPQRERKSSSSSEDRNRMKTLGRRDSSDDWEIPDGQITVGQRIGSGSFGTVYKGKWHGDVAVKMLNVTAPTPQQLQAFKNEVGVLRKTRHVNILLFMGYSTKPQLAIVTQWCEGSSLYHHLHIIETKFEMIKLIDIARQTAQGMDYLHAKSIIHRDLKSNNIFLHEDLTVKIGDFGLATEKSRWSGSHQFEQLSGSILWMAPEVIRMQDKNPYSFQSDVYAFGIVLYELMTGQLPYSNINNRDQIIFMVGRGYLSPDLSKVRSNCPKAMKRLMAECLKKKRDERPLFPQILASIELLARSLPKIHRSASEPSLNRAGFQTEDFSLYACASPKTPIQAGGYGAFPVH
T8 sequence (P21802 22-821): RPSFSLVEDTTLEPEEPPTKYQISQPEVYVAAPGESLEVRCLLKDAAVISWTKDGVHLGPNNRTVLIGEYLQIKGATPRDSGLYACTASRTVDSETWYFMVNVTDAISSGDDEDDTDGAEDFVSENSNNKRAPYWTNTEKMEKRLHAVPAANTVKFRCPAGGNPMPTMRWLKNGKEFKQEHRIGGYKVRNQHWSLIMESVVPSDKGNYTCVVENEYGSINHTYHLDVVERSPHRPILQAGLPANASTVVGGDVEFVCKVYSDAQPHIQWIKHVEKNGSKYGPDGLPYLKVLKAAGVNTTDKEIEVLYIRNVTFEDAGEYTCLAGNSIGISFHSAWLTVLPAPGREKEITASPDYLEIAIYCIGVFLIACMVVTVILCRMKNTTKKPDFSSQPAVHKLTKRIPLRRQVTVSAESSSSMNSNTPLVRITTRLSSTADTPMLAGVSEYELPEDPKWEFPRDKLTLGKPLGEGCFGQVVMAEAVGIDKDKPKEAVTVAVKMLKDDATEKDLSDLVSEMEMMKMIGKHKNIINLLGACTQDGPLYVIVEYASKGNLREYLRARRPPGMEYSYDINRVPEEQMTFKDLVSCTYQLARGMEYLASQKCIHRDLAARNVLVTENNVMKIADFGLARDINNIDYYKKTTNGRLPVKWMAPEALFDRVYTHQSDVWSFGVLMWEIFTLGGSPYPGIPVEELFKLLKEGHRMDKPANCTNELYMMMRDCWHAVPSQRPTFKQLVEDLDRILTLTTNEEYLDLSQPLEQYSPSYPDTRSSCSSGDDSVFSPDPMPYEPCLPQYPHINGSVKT
T7 sequence (Q06187 whole entry): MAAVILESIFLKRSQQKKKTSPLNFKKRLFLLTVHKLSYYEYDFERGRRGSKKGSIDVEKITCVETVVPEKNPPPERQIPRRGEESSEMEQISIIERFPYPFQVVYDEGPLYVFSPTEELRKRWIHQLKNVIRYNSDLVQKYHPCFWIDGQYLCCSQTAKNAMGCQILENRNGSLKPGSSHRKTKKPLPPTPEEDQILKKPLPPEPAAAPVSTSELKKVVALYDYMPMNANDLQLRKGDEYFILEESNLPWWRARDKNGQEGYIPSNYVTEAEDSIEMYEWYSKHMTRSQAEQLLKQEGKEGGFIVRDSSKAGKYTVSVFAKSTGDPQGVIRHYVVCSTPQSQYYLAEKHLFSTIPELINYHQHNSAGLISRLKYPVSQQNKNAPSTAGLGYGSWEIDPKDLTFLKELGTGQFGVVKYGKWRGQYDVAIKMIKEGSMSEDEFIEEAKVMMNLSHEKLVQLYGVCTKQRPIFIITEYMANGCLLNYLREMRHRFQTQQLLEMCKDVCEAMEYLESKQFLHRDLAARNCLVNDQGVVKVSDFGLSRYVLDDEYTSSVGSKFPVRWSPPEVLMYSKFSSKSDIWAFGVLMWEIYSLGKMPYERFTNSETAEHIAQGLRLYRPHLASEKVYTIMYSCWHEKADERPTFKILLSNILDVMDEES

As for `CC(C)Cn1ncc2cc(Cc3ccc(F)cc3F)c(C(=O)NCCN(C)C)cc21` [Compound 94, 5-(2,4-Difluorobenzyl)-N-(2-(dimethylamino)ethyl)-1-isobutyl-1H-indazole-6-carboxamide], the “RA @ 1000nM” value came out at 93% on p38γ; 84% on AURKB; 100% at PLK1; 95% on PIM1; 100% at CHEK1; 78% in [1]. Moreover, the “RA @ 1000nM” value on BTK stood at 100%; on FGFR2, 95%; on CSF1R, 100%; at CDK3, 100%; on BRAF(V600E), 100%; on PDGFRA, 96%. Also, the “RA @ 10000nM” value at p38γ stood at 94%; at AURKB it was 68%; at PLK1 it was 100%; on PIM1 it was 100%; on CHEK1, 100%; in assay [1] it was 79%. For the same compound, the “RA @ 10000nM” value was 100% on BTK; 100% on FGFR2; 86% on CSF1R; 1.3% at CDK3; 100% on BRAF(V600E); 76% on PDGFRA.
As for `CN(C)CCNC(=O)c1cc2c(cnn2CC2CCCCC2)cc1Cc1ccc(F)cc1F` [Compound 95, 1-(Cyclohexylmethyl)-5-(2,4-difluorobenzyl)-N-(2-(dimethylamino)ethyl)-1H-indazole-6-carboxamide], the “RA @ 1000nM” value came out at 100% on p38γ; 99% at AURKB; 100% at PLK1; 100% on PIM1; 100% on CHEK1; 89% in assay [1]. For the same compound, the “RA @ 1000nM” value at BTK stood at 100%; on FGFR2 it was 100%; on CSF1R it was 100%; on CDK3, 100%; at BRAF(V600E), 98%; at PDGFRA, 92%. Further, the “RA @ 10000nM” value on p38γ is reported as 99%; at AURKB it was 71%; on PLK1, 100%; on PIM1, 94%; at CHEK1 it was 100%; in [1], 75%. The “RA @ 10000nM” value is reported as 100% at BTK; 100% at FGFR2; 79% on CSF1R; 100% at CDK3; 100% on BRAF(V600E); 92% at PDGFRA.
